Measured values reported in the NIST ThermoML archive (doi:10.1021/je0340755).
± gives the expanded uncertainty stated by the source.

Legend:
[1] = 101.33 kPa, Liquid; for viscosity: Capillary tube (Ostwald / Ubbelohde) method
[2] = refractive index (Na D-line) (dimensionless); settings: 298.15 K; 101.33 kPa; Liquid; Standard Abbe refractometry

CCC(O)CO (stereo not given) [1,2-butanediol]
[1]
Settings	mass density [kg/m3]	viscosity [mPa·s]
298.15 K	998.86 ± 0.36	57.46 ± 0.2
308.15 K	991.42 ± 0.37	30.18 ± 0.15
318.15 K	983.93 ± 0.39	17.41 ± 0.1
328.15 K	976.09 ± 0.41	10.9 ± 0.083
338.15 K	968.11 ± 0.43	7.257 ± 0.073

[1], Linear variable-path acoustic interferometer
Settings	speed of sound [m/s]
298.15 K	1452 ± 2.2
308.15 K	1423.8 ± 2.2
318.15 K	1396.2 ± 2.2
328.15 K	1387 ± 2.1
338.15 K	1366 ± 2.1

Settings	refractive index
[2]	1.4374 ± 0.0004

CC(O)CO (stereo not given) [1,2-propanediol]
[1]
Settings	mass density [kg/m3]	viscosity [mPa·s]
298.15 K	1032.77 ± 0.44	43.43 ± 0.21
308.15 K	1025.4 ± 0.42	24.25 ± 0.13
318.15 K	1017.32 ± 0.4	–
328.15 K	1009.56 ± 0.38	9.691 ± 0.079
338.15 K	1001.81 ± 0.36	7.044 ± 0.073

[1], Linear variable-path acoustic interferometer
Settings	speed of sound [m/s]
298.15 K	1500.1 ± 2.2
308.15 K	1488.9 ± 2.2
318.15 K	1438.1 ± 2.2
328.15 K	1401 ± 2.2
338.15 K	1382.8 ± 2.1

Settings	refractive index
[2]	1.4314 ± 0.0004

CC(O)CCO (stereo not given) [1,3-butanediol]
[1]
Settings	mass density [kg/m3]	speed of sound [m/s]	viscosity [mPa·s]
298.15 K	1000.03 ± 0.35	1522.1 ± 6.3	97.25 ± 1.1
308.15 K	994.22 ± 0.37	1492.1 ± 6.2	52.5 ± 0.15
318.15 K	988.7 ± 0.38	1472 ± 6.1	30.49 ± 0.15
328.15 K	979.18 ± 0.4	1453.9 ± 6.1	18.91 ± 0.11
338.15 K	971.91 ± 0.42	1436.1 ± 6	12.28 ± 0.087

Settings	refractive index
[2]	1.439 ± 0.0004

OCCCCO [1,4-butanediol]
[1]
Settings	mass density [kg/m3]	speed of sound [m/s]	viscosity [mPa·s]
298.15 K	1012.57 ± 0.45	1605.1 ± 6.5	72.62 ± 0.5
308.15 K	1006.4 ± 0.43	1588 ± 6.5	44.87 ± 0.21
318.15 K	1000.76 ± 0.41	1570.8 ± 6.4	29.07 ± 0.15
328.15 K	–	1552.1 ± 6.4	19.48 ± 0.11
338.15 K	987.93 ± 0.45	1529 ± 6.3	13.49 ± 0.09

Settings	refractive index
[2]	1.4442 ± 0.0004

CC(O)C(C)O (stereo not given) [2,3-butanediol]
[1]
Settings	mass density [kg/m3]	speed of sound [m/s]	viscosity [mPa·s]
298.15 K	998.57 ± 2	1470.2 ± 7.9	44.68 ± 0.21
308.15 K	992.11 ± 2	1440 ± 7.8	22.95 ± 0.12
318.15 K	984.13 ± 2	1412.2 ± 7.7	12.8 ± 0.088
328.15 K	970.58 ± 2	1392 ± 7.6	7.722 ± 0.074
338.15 K	961.97 ± 2	1373.9 ± 7.5	5.195 ± 0.069

Settings	refractive index
[2]	1.4366 ± 0.0004

OCCCO [propan-1,3-diol]
[1]
Settings	mass density [kg/m3]	viscosity [mPa·s]
298.15 K	1049.99 ± 0.49	40.07 ± 0.19
308.15 K	1043.71 ± 0.47	27.25 ± 0.14
318.15 K	1037.37 ± 0.45	17.01 ± 0.1
328.15 K	1030.96 ± 0.43	11.28 ± 0.084
338.15 K	1024.47 ± 0.42	7.939 ± 0.075

[1], Linear variable-path acoustic interferometer
Settings	speed of sound [m/s]
298.15 K	1636.1 ± 2.3
308.15 K	1616 ± 2.3
318.15 K	1599.2 ± 2.2
328.15 K	1575.9 ± 2.2
338.15 K	1557 ± 2.2

Settings	refractive index
[2]	1.4386 ± 0.0004

O [water]
[1]
Settings	viscosity [mPa·s]
298.15 K	0.89 ± 0.063
308.15 K	0.719 ± 0.063
318.15 K	0.596 ± 0.063
328.15 K	0.503 ± 0.063
338.15 K	0.438 ± 0.063

[1], Linear variable-path acoustic interferometer
Settings	speed of sound [m/s]
298.15 K	1498 ± 2.1
308.15 K	1519 ± 2.2
318.15 K	1535.1 ± 2.2
328.15 K	1545 ± 2.2
338.15 K	1551 ± 2.2

Settings	refractive index
[2]	1.3323 ± 0.0004
